The source made the active and inactive calls.
Key:
[1] = target: T1, Ubiquitin-conjugating enzyme E2 N (Homo sapiens, UniProt P61088); format: functional
T1 sequence (P61088 whole entry): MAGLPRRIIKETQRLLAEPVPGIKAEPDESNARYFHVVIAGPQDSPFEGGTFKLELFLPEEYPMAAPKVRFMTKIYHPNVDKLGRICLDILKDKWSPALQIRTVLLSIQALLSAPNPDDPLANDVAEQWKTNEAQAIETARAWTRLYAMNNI

[2] = target: T1, Ubiquitin-conjugating enzyme E2 N; format: functional; remark: listed apart in the source
Bcl-2-related protein A1 = target: T2, Bcl-2-related protein A1 (Mus musculus, UniProt Q07440); format: functional;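 note: confirmatory dose–response counterscreen on Bfl-1, used to check hits from a UBC13 polyubiquitin inhibitor campaign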
T2 sequence (Q07440 whole entry): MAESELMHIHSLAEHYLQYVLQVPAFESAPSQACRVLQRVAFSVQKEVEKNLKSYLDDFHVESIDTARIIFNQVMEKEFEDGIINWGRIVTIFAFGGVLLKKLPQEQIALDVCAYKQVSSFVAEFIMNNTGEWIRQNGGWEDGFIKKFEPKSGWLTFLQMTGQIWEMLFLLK

[3] = target: Glyceraldehyde-3-phosphate dehydrogenase (Homo sapiens, UniProt P04406)
Glyceraldehyde-3-phosphate dehydrogenase, sequence (P04406 whole entry): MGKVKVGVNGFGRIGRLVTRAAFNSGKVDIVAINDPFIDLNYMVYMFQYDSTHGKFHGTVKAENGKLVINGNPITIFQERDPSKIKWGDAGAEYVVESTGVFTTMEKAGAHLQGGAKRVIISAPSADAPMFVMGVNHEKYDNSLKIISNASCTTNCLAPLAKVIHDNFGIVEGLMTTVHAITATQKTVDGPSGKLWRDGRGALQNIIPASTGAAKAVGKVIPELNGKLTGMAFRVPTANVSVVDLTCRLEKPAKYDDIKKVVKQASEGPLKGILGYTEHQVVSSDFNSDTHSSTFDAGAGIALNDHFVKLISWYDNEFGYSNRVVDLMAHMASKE

[4] = target: T3, Alkaline phosphatase, tissue-nonspecific isozyme (Homo sapiens, UniProt P05186); experiment: potency against alkaline phosphatase TNAP – biochemical, luminescent, dose response, SAR follow-up (AID 1056)
T3 sequence (P05186 whole entry): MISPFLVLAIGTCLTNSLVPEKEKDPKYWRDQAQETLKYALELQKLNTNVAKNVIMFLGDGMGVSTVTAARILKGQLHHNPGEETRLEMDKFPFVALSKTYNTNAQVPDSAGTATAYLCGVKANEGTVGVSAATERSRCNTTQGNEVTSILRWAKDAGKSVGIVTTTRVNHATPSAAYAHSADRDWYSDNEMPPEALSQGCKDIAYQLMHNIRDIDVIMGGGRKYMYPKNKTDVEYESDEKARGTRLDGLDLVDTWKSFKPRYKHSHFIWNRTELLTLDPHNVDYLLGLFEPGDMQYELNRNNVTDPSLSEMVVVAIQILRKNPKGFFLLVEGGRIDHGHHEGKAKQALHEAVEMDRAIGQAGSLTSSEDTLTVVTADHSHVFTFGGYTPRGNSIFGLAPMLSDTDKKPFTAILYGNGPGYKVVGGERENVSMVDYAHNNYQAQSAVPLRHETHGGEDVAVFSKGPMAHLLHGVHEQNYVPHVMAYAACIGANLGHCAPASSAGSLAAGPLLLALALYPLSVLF

[5] = target: Intestinal-type alkaline phosphatase (Homo sapiens, UniProt P09923); experiment: inhibition of human intestinal alkaline phosphatase – biochemical, dose response (AID 488876); format: functional
Intestinal-type alkaline phosphatase (Homo sapiens, UniProt P09923), sequence (P09923 whole entry): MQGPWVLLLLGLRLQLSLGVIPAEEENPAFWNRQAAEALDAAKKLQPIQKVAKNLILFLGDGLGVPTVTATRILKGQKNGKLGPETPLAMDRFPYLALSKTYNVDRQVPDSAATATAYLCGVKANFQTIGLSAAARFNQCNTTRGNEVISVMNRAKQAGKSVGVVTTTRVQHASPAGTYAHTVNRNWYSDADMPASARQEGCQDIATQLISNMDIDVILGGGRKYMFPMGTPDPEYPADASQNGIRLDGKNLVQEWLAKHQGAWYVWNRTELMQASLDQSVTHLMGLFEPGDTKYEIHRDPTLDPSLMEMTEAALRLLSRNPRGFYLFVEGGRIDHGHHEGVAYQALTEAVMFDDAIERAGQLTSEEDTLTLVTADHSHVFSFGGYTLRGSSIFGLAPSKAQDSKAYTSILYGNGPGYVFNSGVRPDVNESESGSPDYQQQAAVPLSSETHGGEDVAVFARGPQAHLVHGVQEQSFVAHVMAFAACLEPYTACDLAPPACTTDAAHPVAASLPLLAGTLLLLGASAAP

[6] = target: T3, Alkaline phosphatase, tissue-nonspecific isozyme; experiment: TNAP enzyme inhibition by screening hits, dose response, selectivity assay for mouse IAP inhibitor project, biochemical, human TNAP, uHTS hits (AID 488906); format: functional
[7] = target: Intestinal-type alkaline phosphatase (Mus musculus, UniProt P24822); experiment: PubChem AID 488785; format: functional
Intestinal-type alkaline phosphatase (Mus musculus, UniProt P24822), sequence (P24822 whole entry): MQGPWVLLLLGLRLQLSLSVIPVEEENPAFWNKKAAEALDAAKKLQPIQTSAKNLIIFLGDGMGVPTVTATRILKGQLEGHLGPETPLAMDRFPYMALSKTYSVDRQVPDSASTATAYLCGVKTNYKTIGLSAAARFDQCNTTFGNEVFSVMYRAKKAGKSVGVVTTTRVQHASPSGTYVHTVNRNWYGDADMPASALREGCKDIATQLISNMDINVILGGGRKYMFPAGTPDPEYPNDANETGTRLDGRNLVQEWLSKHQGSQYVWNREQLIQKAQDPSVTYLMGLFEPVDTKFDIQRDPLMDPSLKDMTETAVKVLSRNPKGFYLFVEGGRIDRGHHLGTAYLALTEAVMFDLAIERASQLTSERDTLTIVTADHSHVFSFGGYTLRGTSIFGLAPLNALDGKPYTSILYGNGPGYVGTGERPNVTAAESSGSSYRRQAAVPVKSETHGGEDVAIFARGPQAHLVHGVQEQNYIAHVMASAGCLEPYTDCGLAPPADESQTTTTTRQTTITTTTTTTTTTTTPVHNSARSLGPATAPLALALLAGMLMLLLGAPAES

[8] = target: DNA dC->dU-editing enzyme APOBEC-3G (Homo sapiens, UniProt Q9HC16); format: functional;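 note: Dose-response counterscreen measuring inhibition of APOBEC3G DNA deaminase activity, run while confirming APOBEC3A inhibitors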
DNA dC->dU-editing enzyme APOBEC-3G, sequence (Q9HC16 whole entry): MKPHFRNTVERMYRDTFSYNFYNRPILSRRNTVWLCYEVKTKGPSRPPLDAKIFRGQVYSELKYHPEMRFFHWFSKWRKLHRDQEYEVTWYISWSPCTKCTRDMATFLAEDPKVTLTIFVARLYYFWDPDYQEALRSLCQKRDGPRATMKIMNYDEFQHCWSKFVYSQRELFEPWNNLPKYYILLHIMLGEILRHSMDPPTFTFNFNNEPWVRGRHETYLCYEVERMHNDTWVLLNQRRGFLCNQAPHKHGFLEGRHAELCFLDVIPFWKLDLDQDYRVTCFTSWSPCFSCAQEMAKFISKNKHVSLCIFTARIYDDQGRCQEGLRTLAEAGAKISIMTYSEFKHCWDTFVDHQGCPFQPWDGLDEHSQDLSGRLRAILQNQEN

[9] = target: DNA dC->dU-editing enzyme APOBEC-3A (Homo sapiens, UniProt P31941); experiment: Dose Response confirmation of small molecule APOBEC3A DNA Deaminase Inhibitors via a fluorescence-based single-stranded DNA deaminase assay. [Related pubchem assays (depositor defined):AID493011, AID493024]; format: functional
DNA dC->dU-editing enzyme APOBEC-3A, sequence (P31941 whole entry, the tested form may be a part): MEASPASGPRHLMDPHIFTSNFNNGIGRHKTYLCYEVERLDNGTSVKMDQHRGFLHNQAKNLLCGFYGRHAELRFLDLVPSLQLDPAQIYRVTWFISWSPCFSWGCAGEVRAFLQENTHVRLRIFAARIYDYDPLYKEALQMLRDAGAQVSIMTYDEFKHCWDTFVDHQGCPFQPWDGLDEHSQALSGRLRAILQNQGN

[10] = target: T4, Carboxy-terminal domain RNA polymerase II polypeptide A small phosphatase 1 (Homo sapiens, UniProt Q9GZU7); experiment: CTDSP1 inhibitors, concentration-response, biochemical, absorbance readout, ultra-high-throughput screen actives (AID 540297); format: functional
T4 sequence (Q9GZU7 whole entry): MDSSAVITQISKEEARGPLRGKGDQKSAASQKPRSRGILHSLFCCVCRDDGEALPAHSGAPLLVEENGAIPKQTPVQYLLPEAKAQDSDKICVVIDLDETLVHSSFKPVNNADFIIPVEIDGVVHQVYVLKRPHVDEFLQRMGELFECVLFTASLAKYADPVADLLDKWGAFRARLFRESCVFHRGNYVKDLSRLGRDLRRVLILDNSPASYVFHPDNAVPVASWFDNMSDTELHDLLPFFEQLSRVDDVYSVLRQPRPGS

Estrogen receptor beta = Estrogen receptor beta (Homo sapiens, UniProt Q92731); experiment: blockers of SRC-3 recruitment to ERβ – biochemical, ELISA, streptavidin-HRP readout, orthogonal assay, confirmation (AID 1060)
Estrogen receptor beta, sequence (Q92731 whole entry): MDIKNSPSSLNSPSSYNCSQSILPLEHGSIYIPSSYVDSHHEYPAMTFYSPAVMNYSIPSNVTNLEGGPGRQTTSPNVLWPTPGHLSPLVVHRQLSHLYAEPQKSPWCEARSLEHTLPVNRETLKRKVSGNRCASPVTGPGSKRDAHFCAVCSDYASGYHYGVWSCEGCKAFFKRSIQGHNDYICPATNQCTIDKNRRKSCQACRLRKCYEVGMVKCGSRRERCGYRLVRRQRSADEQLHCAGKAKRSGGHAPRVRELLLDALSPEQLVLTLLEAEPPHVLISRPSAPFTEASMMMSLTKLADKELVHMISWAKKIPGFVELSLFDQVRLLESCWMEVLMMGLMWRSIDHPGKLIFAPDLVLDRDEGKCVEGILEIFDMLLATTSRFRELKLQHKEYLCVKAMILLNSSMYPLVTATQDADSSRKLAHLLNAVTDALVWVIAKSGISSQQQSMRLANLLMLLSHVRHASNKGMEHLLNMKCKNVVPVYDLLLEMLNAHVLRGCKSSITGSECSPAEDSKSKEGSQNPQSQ

HEK293 [11] = experiment: NOD2 signaling inhibitors in MDP-stimulated cells, cell-based, uHTS, luminescence (AID 2001); format: functional; settings: Homo sapiens
Protein RecA = target: T5, Protein RecA (Mycobacterium tuberculosis, UniProt P9WHJ3); experiment: Fluorescence Cell-Free Homogeneous Dose Retest to Identify Inhibitors of RecA-Intein Splicing Activity. [Related pubchem assays (depositor defined):AID2097, AID2223, AID489010, AID492950]; format: functional
T5 sequence (P9WHJ3 whole entry): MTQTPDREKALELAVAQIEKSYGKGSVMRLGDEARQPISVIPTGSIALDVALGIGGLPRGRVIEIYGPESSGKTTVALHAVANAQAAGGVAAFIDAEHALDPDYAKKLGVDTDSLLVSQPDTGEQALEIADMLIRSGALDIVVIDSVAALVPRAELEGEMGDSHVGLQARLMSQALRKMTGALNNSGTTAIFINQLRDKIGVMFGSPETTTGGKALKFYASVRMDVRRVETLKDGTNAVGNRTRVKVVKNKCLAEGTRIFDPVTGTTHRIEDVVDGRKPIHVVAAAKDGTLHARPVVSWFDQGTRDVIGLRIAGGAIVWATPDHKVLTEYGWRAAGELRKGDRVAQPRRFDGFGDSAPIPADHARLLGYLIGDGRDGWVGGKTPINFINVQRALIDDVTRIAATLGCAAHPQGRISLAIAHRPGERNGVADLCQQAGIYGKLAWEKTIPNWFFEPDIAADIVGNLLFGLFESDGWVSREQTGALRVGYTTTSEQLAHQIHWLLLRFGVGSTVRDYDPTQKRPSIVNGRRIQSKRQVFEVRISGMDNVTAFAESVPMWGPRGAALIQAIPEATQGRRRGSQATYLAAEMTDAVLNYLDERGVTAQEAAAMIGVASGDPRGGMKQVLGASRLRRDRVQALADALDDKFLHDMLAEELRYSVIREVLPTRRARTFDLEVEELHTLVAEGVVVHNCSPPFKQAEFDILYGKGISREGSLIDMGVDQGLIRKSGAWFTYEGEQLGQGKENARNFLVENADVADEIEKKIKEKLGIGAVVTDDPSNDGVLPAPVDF

[12] = microbe, parasite or virus in culture; format: functional; settings: Mycobacterium tuberculosis
[13] = Luminescence Cell-Based Dose Retest to Confirm Inhibitors of Cancer Stem Cells. [Related pubchem assays (depositor defined):AID2717, AID2721]; format: functional; settings: Homo sapiens
Perilipin-1/ABHD5 = Perilipin-1/ABHD5 (Homo sapiens, UniProt O60240+Q8WTS1); experiment: Luminescence-based biochemical high throughput dose response assay for inhibitors of the interaction of the lipase co-activator protein, abhydrolase domain containing 5 (ABHD5) with perilipin-1 (PLIN1) (2K validation set). [Related pubchem assays (depositor defined):AID493027, AID493057]
[14] = target: T6, Replicative DNA helicase DnaB (Mycobacterium tuberculosis, UniProt P9WMR3); experiment: DnaB intein splicing inhibitors, dose response, biochemical, cell-free fluorescence (AID 449749); format: functional
T6 sequence (P9WMR3 whole entry): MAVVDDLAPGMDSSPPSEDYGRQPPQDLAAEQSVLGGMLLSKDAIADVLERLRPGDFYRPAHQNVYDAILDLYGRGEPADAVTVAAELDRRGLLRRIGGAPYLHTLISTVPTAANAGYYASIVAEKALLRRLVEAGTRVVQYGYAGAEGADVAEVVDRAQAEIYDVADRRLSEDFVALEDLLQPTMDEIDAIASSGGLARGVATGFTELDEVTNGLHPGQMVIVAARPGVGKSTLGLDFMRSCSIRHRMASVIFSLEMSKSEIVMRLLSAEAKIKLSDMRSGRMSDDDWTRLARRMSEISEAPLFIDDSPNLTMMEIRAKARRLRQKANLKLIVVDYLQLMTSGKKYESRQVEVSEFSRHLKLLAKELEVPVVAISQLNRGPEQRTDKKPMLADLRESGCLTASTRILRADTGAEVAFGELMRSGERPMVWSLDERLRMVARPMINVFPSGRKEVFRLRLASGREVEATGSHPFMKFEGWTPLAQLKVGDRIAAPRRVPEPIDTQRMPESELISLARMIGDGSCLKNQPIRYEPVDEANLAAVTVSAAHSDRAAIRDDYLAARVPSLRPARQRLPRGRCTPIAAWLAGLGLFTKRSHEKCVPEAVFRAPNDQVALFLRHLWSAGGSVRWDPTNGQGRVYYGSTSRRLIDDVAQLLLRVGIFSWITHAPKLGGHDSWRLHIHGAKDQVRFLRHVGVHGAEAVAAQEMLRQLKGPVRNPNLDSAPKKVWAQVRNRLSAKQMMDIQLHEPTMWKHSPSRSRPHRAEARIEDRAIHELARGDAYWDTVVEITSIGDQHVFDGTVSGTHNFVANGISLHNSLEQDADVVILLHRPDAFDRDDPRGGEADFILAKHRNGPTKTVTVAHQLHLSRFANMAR

[15] = DRD fibroblast viability loss – cell-based, non-viral oncogenic, luminescence, dose response (AID 1934); format: functional; settings: Homo sapiens
BJ [16] = experiment: BJ-TERT fibroblast viability loss – cell-based, RAS-independent, luminescence, dose response (AID 1933); format: functional; settings: Homo sapiens
[17] = target: 1-acylglycerol-3-phosphate O-acyltransferase ABHD5/Perilipin-5 (Homo sapiens, UniProt Q00G26+Q8WTS1); experiment: Luminescence-based biochemical high throughput dose response assay for inhibitors of the interaction of the lipase co-activator protein, abhydrolase domain containing 5 (ABHD5) with perilipin-5 (MLDP; PLIN5) (2K validation set). [Related pubchem assays (depositor defined):AID493035, AID493241]
1-acylglycerol-3-phosphate O-acyltransferase ABHD5/Perilipin-5, sequence (Q00G26 whole entry, the tested form may be a part): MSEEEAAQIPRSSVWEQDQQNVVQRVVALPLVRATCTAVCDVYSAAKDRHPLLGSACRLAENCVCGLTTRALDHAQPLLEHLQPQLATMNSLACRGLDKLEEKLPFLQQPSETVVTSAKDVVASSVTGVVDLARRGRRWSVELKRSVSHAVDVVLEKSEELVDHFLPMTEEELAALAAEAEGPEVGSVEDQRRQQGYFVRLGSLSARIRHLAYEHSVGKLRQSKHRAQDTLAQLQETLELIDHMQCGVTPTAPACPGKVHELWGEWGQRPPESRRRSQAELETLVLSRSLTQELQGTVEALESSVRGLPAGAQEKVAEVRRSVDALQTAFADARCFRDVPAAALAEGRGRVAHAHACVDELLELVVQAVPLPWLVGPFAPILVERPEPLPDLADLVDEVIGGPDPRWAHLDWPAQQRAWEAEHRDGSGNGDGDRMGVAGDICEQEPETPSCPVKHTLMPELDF
1-acylglycerol-3-phosphate O-acyltransferase ABHD5/Perilipin-5, sequence (Q8WTS1 whole entry, the tested form may be a part): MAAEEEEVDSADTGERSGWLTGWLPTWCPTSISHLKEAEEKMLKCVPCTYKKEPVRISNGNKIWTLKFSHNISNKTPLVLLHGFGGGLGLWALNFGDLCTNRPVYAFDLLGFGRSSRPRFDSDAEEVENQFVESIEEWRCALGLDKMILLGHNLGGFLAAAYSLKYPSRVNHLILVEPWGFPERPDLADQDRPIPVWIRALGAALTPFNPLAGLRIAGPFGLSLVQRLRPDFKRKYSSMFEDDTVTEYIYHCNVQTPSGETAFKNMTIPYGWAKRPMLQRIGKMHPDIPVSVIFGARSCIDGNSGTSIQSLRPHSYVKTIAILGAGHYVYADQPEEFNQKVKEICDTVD

HEK293 [18] = experiment: cells; format: functional, cell-based; settings: Homo sapiens
BJ [19] = experiment: cells; format: functional, cell-based; settings: Homo sapiens
[20] = viability of PTEN-deleted HCT116 cells – cell-based, HCT116 PTEN knockout, dose response (AID 1047); format: functional;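 note: HCT116 colon tumor cells with PTEN knocked out; cells exposed to compound for 60 hours before readout; potency for loss of cell viability measured by luminescence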
BJ [21] = experiment: BJ-TERT-LT-ST fibroblast viability loss – cell-based, RAS-independent, luminescence, dose response (AID 1935); format: functional; settings: Homo sapiens;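 note: BJ fibroblasts immortalized with TERT plus LT and ST oncogenes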
[22] = target: Nucleotide-binding oligomerization domain-containing protein 2 (Homo sapiens, UniProt Q9HC29); experiment: inhibition of NOD2-driven NF-kB reporter – cell-based, luminescence, uHTS, HEK293 (AID 1566); format: functional
Nucleotide-binding oligomerization domain-containing protein 2, sequence (Q9HC29 whole entry, the tested form may be a part): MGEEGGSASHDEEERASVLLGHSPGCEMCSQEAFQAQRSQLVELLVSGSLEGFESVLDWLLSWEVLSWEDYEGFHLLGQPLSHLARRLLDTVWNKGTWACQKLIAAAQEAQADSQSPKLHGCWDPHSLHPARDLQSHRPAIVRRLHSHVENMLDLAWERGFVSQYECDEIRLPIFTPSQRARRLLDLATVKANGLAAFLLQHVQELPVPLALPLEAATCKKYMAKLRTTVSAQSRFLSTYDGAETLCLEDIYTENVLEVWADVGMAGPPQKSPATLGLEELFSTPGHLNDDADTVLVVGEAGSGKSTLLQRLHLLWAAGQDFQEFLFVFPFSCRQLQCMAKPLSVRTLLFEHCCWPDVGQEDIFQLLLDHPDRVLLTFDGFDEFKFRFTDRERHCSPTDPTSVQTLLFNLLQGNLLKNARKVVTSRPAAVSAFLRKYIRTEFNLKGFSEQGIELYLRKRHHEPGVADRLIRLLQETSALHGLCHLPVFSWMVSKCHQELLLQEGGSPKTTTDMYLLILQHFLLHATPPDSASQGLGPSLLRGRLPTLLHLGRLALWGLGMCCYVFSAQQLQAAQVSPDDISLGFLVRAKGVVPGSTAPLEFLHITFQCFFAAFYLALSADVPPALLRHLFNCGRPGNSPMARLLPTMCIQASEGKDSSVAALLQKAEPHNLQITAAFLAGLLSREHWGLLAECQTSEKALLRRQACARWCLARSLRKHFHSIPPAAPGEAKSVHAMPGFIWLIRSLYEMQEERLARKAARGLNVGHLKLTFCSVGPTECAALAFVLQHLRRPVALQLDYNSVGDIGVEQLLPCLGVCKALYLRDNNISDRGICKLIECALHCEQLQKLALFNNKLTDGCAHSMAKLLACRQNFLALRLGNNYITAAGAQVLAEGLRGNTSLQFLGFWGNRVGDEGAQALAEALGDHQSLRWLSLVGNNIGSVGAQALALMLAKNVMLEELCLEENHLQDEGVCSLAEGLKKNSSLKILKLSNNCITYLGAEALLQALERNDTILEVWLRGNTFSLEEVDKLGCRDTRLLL

HEK293 [23] = experiment: cells; format: functional, cell-based; settings: Homo sapiens; remark: listed apart in the source
HEK293 [24] = experiment: inhibition of NOD1-driven NF-kB reporter – cell-based, luminescence, uHTS, primary screen (AID 1578); format: functional; settings: Homo sapiens
BJ [25] = experiment: growth inhibition of engineered Ras-driven BJ cells – cell-based, alamar blue fluorescence, cherrypicked samples, dose response (AID 2631); format: functional; settings: Homo sapiens;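 note: confirmatory dose-response assay in RAS-dependent BJ fibroblasts engineered with TERT, LT and ST, with cytotoxicity read by fluorescence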
[26] = viability of HCT116 lacking mutant beta-catenin – cell-based, human colon tumor, dose response (AID 1045); format: functional;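 note: HCT116 colon tumor cells with beta catenin knocked out; cells exposed to compound for 60 hours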
HEK293 [27] = experiment: cells; format: functional, cell-based; settings: Homo sapiens; remark: listed apart in the source

Cc1ccc(NC(=O)C[n+]2ccn(C3=C([O-])c4ccccc4C3=O)c2)cc1
IC50 [1]: 9.72 µM (active)
IC50 [2]: 14.4 µM (active)
IC50 (Bcl-2-related protein A1): > 20 µM (inactive)

O=S(=O)(Nc1ccc2ccccc2c1)c1ccc(Br)cc1OC(F)(F)F
IC50 [3]: > 10 µM (inconclusive)
IC50 [4]: > 10 µM (inactive)

COc1ccc(Cl)cc1NC(=S)NCCC(c1ccccc1)c1ccccc1
IC50 [5]: 15.9 µM (active)
IC50 [6]: 23.9 µM (active)
IC50 [7]: 11.3 µM (active)

CC1=CC(C)(C)[N+](C)=CN1c1ccccc1
IC50 [8]: 4.28 µM (active)
IC50 [9]: 2.19 µM (active)

CCOc1ccccc1N1CCN(S(=O)(=O)c2ccc3c4c(cccc24)C(=O)N3)CC1
IC50 [5]: > 100 µM (inactive)
IC50 [6]: 81.2 µM (active)
IC50 [10]: 7.47 µM (active)
IC50 (Estrogen receptor beta): 9.19 µM (not active)
IC50 [7]: 7.13 µM (active)

CCc1nc(-c2ccc(C)nc2OC)no1
IC50 [8]: 4.74 µM (active)
IC50 [9]: 3.49 µM (active)

COc1ccc(CN(CCC(c2ccccc2)c2ccc(OC(C)C)cc2)C(=O)CCl)cc1OC (configuration not stated)
IC50 (HEK293 [11]): 13.9 µM (inactive)
EC50 (Protein RecA): 0.333 µM (active)
CC50 [12]: 1.49 µM (active)
AC50 [13]: 1.25 µM (active)
IC50 (Perilipin-1/ABHD5): 3.17 µM (active)
AC50 [14]: 0.335 µM (active)
EC50 [15]: 3.74 µM (active)
EC50 (BJ [16]): 0.605 µM (active)
IC50 [17]: 3.57 µM (active)
IC50 (HEK293 [18]): > 20 µM (inactive)
EC50 (BJ [19]): 4.25 µM (active)
EC50 [20]: 6.29 µM (active)
EC50 (BJ [21]): 4.09 µM (inconclusive)
EC50 [22]: > 20 µM (inactive)
IC50 (HEK293 [23]): 6.94 µM (active)
EC50 (HEK293 [24]): 17.9 µM (active)
EC50 (BJ [25]): 3.43 µM (active)
EC50 [26]: 6.08 µM (active)
IC50 (HEK293 [27]): 10.6 µM (active)

COc1ccc(/C=N\NC(=O)c2sc(N)nc2C)cc1OC
IC50 [1]: 0.507 µM (active)
IC50 [2]: 0.548 µM (active)
IC50 (Bcl-2-related protein A1): > 20 µM (inactive)

Cc1ccc(NC(=O)CCC(=O)N/N=C/c2ccccc2O)cc1
IC50 (HEK293 [11]): > 20 µM (inactive)
IC50 (HEK293 [18]): > 20 µM (inactive)
EC50 [22]: > 20 µM (inactive)
IC50 (HEK293 [23]): 14.7 µM (active)
EC50 (HEK293 [24]): > 20 µM (inactive)
IC50 (HEK293 [27]): > 20 µM (inactive)

CC(C)CSc1nnc(N)[nH]1
IC50 [3]: > 100 µM (not active)
IC50 [4]: 60.8 µM (active)
